Test results: patent publication US20240307409A1, “ARGININE METHYLTRANSFERASE INHIBITOR AND USE THEREOF” (Cytosinlab Therapeutics Co., Ltd., priority 2021, published 2024)

Legend:
[1] = target: PRMT1 (Homo sapiens, UniProt Q99873); test: PRMT1 enzyme activity test; assay type: biochemical; details: 0.5 nM PRMT1, 3H-SAM, peptide
Description: PRMT1 enzyme activity test were performed in a buffer prepared on the same day 5 consisting of 10 mMTirs-HCl (pH=8.0), 0.01% Tween-20 and 1 mM DTT. The compounds were prepared to the highest inhibitor concentration ultimately required in the 100× reaction with 100% DMSO and then transferred to one well of a 384-well Echo plate (Echo-eligible 384-well polypropylene microplates 2.0, transparent, flat-bottomed) and sequentially diluted in the next well with a 3-fold dilution of 100% DMSO, and so on, with a total of 10 concentrations based on Precision. 100% DMSO was added to two empty wells to serve as control well without compound and control well without enzyme in the same 384-well Echo plate. 250 nL of compound was transferred from each well of the 384-well Echo plate to a 384-well assay plate (384-well polypropylene storage microplate) via the Echo 550 liquid processor. For wells with compounds and control well without compound, a mixture (15 uL) containing PRMT1 enzyme was added to the 384-well assay plate. For control wells without enzyme, the mixture containing the assay buffer (15 uL) was added instead. The compounds were allowed to incubate with PRMT1 for 15 minutes at room temperature, and then a mixture containing ^3H-SAM and peptide (10 uL) was added to start the reaction (final volume=25 uL). The final concentrations of the components were as follows: 0.5 nM for PRMT1, 0.25 uM for ^3H-SAM, 0.1 uM for the peptide, and 1% DMSO. After 120 min of incubation, the assay was terminated by the addition of non-radiolabeled SAM (5 uL) to a final concentration of 125 uM, which diluted 3H-SAM to a level at which its incorporation into the peptide substrate was no longer detected. 25 μL of the reaction solution from the 384-well assay plate was then transferred to a 384-well detection plate (Streptavidin FlashPlate HTS PLUS, high volume, 384 wells). The biotinylated peptide was allowed to bind to the surface of the antibiotic protein streptavidin for at least 60 minutes at room temperature. The Flashplate was then washed three times with 0.1% Tween-20 in a BioTek plate washer. Plates were read on a microplate counter (MicroBeta2) to measure the amount of ^3H-labeled peptide bound to the surface of the detection plate, measured in counts per minute (cpm).
The raw data were copied from the Reader and the inhibition values were calculated in Excel by Equation (1), Equation (1): Inh %=(CPMmax−CPMcmpd)/(CPMmax−CPMmin)*100, wherein the Max signal was obtained from the enzyme-substrate interaction and the Min signal was obtained from the substrate. IC50 values were obtained by fitting the data through equation (2) using XLFit add-in for Excel version […]. Equation (2): Y=Bottom+(Top-Bottom)/(1+((IC50/X)[…])), wherein, Y represents inhibition percentage and X represents compound concentration.

[2] = system: Toledo cells; test: Toledo cell proliferation inhibition assay; assay type: cell-based; details: Homo sapiens, Toledo, 144 h; six-day assay, CellTiter-Glo
Description: • A. Purpose: to determine the effects of compounds on Toledo cells through a six-day cell proliferation assay. • B. Reagents and materials: • 1. Cell culture medium: RPMI 1640+10% FBS • 2. 384-well cell culture plate (Corning, item #3764) • 3. 0.4% Taipan Blue Staining Solution (Thermo Fisher, item #T10282) • 4. cell counting plate (Thermo Fisher, item #C10228) • 5. 50 ml reagent reservoir (Corning, item #4870) • 6. 50 ml conical sterile polypropylene centrifuge tube (Thermo Fisher, item #339653) • 7. Automatic cell counter (Thermo Fisher, item #AMQAX1000) • 8. CellTiter-Glo Luminescent Cell Viability Detection Reagent (Promega, item #G7572) • 9. SpectraMax i3x Multi-Mode Enzyme Labeling Instrument (Megaman Molecular Instruments, item #5024062) • C. Experimental method • 1. Resuspending the cells with a pipette. • 2. 0.4% Taipan blue staining solution and Toledo cells were mixed in equal proportion, and the cells were counted using an automatic cell counter. • 3. Toledo cells were diluted to a final concentration of 2000 cells per well and transferred to a 50 ml reagent reservoir. • 4. Diluted Toledo cells were added to a 384-well cell culture plate, 40 ul per well. • 5. The cells were shortly centrifuged and settled. • 6. The cells were incubated in a 37° C., 5% CO2 cell culture incubator. • 7. The substrate in the CellTiter-Glo Luminescent Cell Viability Detection Reagent was mixed with the solution. • 8. After six days, the 384-well cell culture plate was taken from the incubator and 20 ul of configured CellTiter-Glo reagent was added to each well. • 9. 384-well cell culture platewasmixed in an orbital shaker for 30 minutes. • 10. Signal of luminescence was detected with a SpectraMax i3x multi-mode enzyme labeling instrument.

Chain of PRMT1 (Q99873 whole entry): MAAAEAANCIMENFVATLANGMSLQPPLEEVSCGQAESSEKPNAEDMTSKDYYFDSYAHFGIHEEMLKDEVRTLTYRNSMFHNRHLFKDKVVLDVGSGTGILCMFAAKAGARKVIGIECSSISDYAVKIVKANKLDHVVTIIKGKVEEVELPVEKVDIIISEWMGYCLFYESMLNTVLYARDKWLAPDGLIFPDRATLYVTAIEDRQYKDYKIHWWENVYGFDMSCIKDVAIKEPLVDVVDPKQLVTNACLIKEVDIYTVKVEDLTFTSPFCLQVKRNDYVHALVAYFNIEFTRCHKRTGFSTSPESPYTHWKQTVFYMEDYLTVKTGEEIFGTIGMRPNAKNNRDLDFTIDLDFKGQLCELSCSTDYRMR

| Structure (SMILES) | IC50 [1] [nM] | IC50 [2] [nM] |
| --- | --- | --- |
| CNCCN(C)Cc1ccc(F)cc1C1CCc2ccc(C(F)(F)F)cc2CC1 (centres unmarked) [P002] | < 50 | – |
| CNCCN(C)Cc1cc(F)ccc1[C@H]1CC[C@@H](c2cccc(C)c2)CC1 [P006] | < 50 | 1000 to 5000 |
| CNCCN(C)Cc1cc(F)ccc1C1CCN(CCc2ccc(C(F)(F)F)cc2)CC1 [P010] | < 50 | 1000 to 5000 |
| CNCCN(C)Cc1ccc(F)cc1C1CCc2ccccc2CC1 [P011] | < 50 | < 1000 |
| CNCCN(C)Cc1ccc(F)cc1C1CCN(CCc2ccccc2)CC1 [P012] | < 50 | < 1000 |
| CCc1cccc(N2CCC(c3cc(F)ccc3CN(C)CCNC)CC2)c1 [P013] | < 50 | 1000 to 5000 |
| CCC1CC=C(c2ccccc2CN(C)CCNC)CC1 (centres unmarked) [P016] | < 50 | < 1000 |
| CNCCN(C)Cc1ccc(F)cc1C1CCCN(c2ccccc2)CC1 (centres unmarked) [P017] | < 50 | 1000 to 5000 |
| CNCCN(C)Cc1cc(F)ccc1C1CCN(c2cccc(C)c2)CC1 [P020] | < 50 | < 1000 |
| CNCCN(C)Cc1ccccc1C1CCCCC1 [P024] | < 50 | < 1000 |
| CNCCN(C)Cc1ccc(F)cc1[C@H]1CC[C@@H](Oc2cc(C(F)(F)F)cc(C(F)(F)F)c2)CC1 [P026] | ≥ 500 | – |
| CNCCN(C)Cc1ccccc1C1CCN(C(C)C)CC1 [P027] | < 50 | 1000 to 5000 |
| CNCCN(C)Cc1ccccc1C1=CCN(C(C)C)CC1 [P028] | < 50 | ≥ 5000 |
| CNCCN(C)Cc1ccccc1N1CCc2ccccc2C1 [P029] | < 50 | – |
| CNCCN(C)Cc1ccc(F)cc1N1CCCN(c2ccccc2)CC1 [P030] | < 50 | ≥ 5000 |
| CCC1CCN(c2ccccc2CN(C)CCNC)CC1 [P031] | < 50 | 1000 to 5000 |
| CNCCN(C)Cc1ccc(F)cc1N1CCC(Oc2cc(C(F)(F)F)cc(C(F)(F)F)c2)CC1 [P032] | ≥ 500 | – |
| CNCCN(C)Cc1ccccc1N1CCCCC1 [P033] | < 50 | 1000 to 5000 |
| CNCCN(C)Cc1nc(C)ccc1C1CCN(CCc2ccc(C(F)(F)F)cc2)CC1 [P034] | < 50 | < 1000 |
| CNCCN(C)Cc1ccccc1N1CCC(N(C)C)CC1 [P035] | 50 to 500 | ≥ 5000 |

| Structure (SMILES) | IC50 [1] [nM] | IC50 [2] [nM] |
| --- | --- | --- |
| CNCCN(C)Cc1ccc(C)nc1C1CCN(c2cc(C)c(F)cc2F)CC1 [P062] | < 50 | – |
| CNCCN(C)Cc1ncccc1C#Cc1cccc(C)c1 [P091] | ≥ 500 | – |
| CNCCN(C)Cc1ncccc1C1CCN(C)CC1 [P152] | < 50 | – |
| CNCCN(C)Cc1ccc(-c2ncc[nH]2)cc1C1CCN(c2cccc(C)c2)CC1 [P154] | < 50 | – |
| CNCCN(C)Cc1ccc(=O)[nH]c1C1CCN(c2cccc(C)c2)CC1 [P211] | 50 to 500 | – |
| CNCCN(C)Cc1cc(C(N)=O)ccc1C1CCN(c2cccc(C)c2)CC1 [P220] | 50 to 500 | – |
| CNCCN(C)Cc1ccc2nncn2c1C1CCN(c2cccc(C)c2)CC1 [P232] | 50 to 500 | – |
| CNCCN(C)Cc1ncccc1C1CCN(C(=O)C(C)C)CC1 [P235] | < 50 | – |
| CNCCN(C)Cc1ncccc1C1CCN(C(C)(C)O)CC1 [P244] | < 50 | – |
| CNCCN(C)Cc1ncccc1C1CCOCC1 [P245] | < 50 | – |
| CNCCN(C)Cc1ncccc1C1CCCOC1 (centres unmarked) [P246] | ≥ 500 | – |
| CNCCN(C)Cc1ncccc1C1CCCCO1 (centres unmarked) [P247] | 50 to 500 | – |
| CNCCN(C)Cc1ncccc1C1CCN(CCOCCOCCOCCOCCOCCN2CCC(c3cccnc3CN(C)CCNC)CC2)CC1 [P257] | < 50 | – |
| CNCCN(C)Cc1ccc2[nH]nnc2c1C1CCN(c2cccc(C)c2)CC1 [P265] | < 50 | – |
| CNCCN(C)Cc1ncccc1N1CCC(OCCOC)CC1 [P274] | < 50 | – |
| CNCCN(C)Cc1ncccc1C1CCN(c2ccnnc2)CC1 [P289] | < 50 | – |
| CNCCN(C)Cc1ncccc1N1CCC(O)CC1 [P294] | < 50 | – |
| CNCCN(C)Cc1ncccc1N1CCc2ccc(S(C)(=O)=O)cc2CC1 [P295] | < 50 | – |
| CNCCN(C)Cc1ncccc1C1CCN(c2ccc(C(N)=O)cc2)CC1 [P299] | < 50 | – |
| CNCCN(C)Cc1ncccc1N1CCC(OCC(=O)NC)CC1 [P322] | < 50 | – |

| Structure (SMILES) | IC50 [1] [nM] | IC50 [2] [nM] |
| --- | --- | --- |
| NCCCCc1ccccc1N1CCc2cc(F)c(F)cc2CC1 [P350] | ≥ 500 | – |
| CNCCN(C)C(C)c1ccccc1N1CCc2cc(F)c(F)cc2CC1 (centres unmarked) [P351] | 50 to 500 | – |
| CNCCN(C)Cc1ccc(OC)nc1C1CCN(c2cccc(C)c2)CC1 [P352] | 50 to 500 | – |
| CNCCN(C)Cc1ccc(NC(=O)NC)nc1C1CCN(c2cccc(C)c2)CC1 [P353] | < 50 | – |
| CNCCN(C)Cc1ccc(Nc2ccc(F)cc2)nc1C1CCN(c2cccc(C)c2)CC1 [P354] | 50 to 500 | – |
| CNCCN(C)Cc1ccc(Nc2ncc[nH]2)nc1C1CCN(c2cccc(C)c2)CC1 [P355] | < 50 | – |
| CNCCN(C)Cc1ccc(NS(C)(=O)=O)nc1C1CCN(c2cccc(C)c2)CC1 [P357] | 50 to 500 | – |
| CNCCN(C)Cc1ccc(NC)nc1C1CCN(c2cccc(C)c2)CC1 [P358] | < 50 | – |
| CNCCN(C)Cc1nc(N)cnc1C1CCN(c2cccc(C)c2)CC1 [P359] | 50 to 500 | – |
| CNCCN(C)Cc1ccc(N2CCOC2=O)nc1C1CCN(c2cccc(C)c2)CC1 [P360] | 50 to 500 | – |
| CNCCN(C)Cc1ccc(CN2CCCC2)nc1C1CCN(c2cccc(C)c2)CC1 [P361] | < 50 | – |
| CNCCN(C)Cc1ccc(NCCNCC(=O)OC)nc1C1CCN(c2cccc(C)c2)CC1 [P362] | 50 to 500 | – |
| CNCCN(C)Cc1ccc(NC(=O)N(C)C)nc1C1CCN(c2cccc(C)c2)CC1 [P363] | 50 to 500 | – |
| CNCCN(C)Cc1ccc(NS(=O)(=O)N(C)C)nc1C1CCN(c2cccc(C)c2)CC1 [P365] | 50 to 500 | – |
| CNCCN(C)Cc1ccc(Nc2nc3ccccc3[nH]2)nc1C1CCN(c2cccc(C)c2)CC1 [P366] | < 50 | – |
| CCOC(=O)c1cnc(Nc2ccc(CN(C)CCNC)c(C3CCN(c4cccc(C)c4)CC3)n2)[nH]1 [P367] | < 50 | – |
| Cc1cccc(N2CCC(c3nc(N)cnc3CN(C)CCN(C)C)CC2)c1 [P368] | 50 to 500 | – |
| Cc1cccc(N2CCC(c3nc(N)cnc3CN(C)CCN)CC2)c1 [P369] | < 50 | – |
